Laboratory results: US12480075B2, “Perfume delivery system” (FIRMENICH SA, priority 2019, dated 2025)

experiment: Odor threshold concentration (Log T / Log ODT) by gas chromatograph sniff port with panelists; parameters: species or system human; settings: common logarithm of odor threshold concentration of the ingredient
Description: “High impact perfume raw materials” should be understood as perfume raw materials having a Log T<−4. The odor threshold concentration of a chemical compound is determined in part by its shape, polarity, partial charges and molecular mass. For convenience, the threshold concentration is presented as the common logarithm of the threshold concentration, i.e., Log [Threshold] (“Log T”).
The odor threshold concentration of a perfuming compound is determined by using a gas chromatograph (“GC”). Specifically, the gas chromatograph is calibrated to determine the exact volume of the perfume oil ingredient injected by the syringe, the precise split ratio, and the hydrocarbon response using a hydrocarbon standard of known concentration and chain-length distribution. The air flow rate is accurately measured and, assuming the duration of a human inhalation to last 12 seconds, the sampled volume is calculated. […] To determine the threshold concentration, solutions are delivered to the sniff port at the back-calculated concentration. A panelist sniffs the GC effluent and identifies the retention time when odor is noticed. The average across all panelists determines the odor threshold concentration of the perfuming compound. The determination of odor threshold is described in more detail in C.

Compound	Log ODT
CCCCCCCCCC(C)C=O (racemic) [(+−)-2-METHYLUNDECANAL]	<-4
CCCCCCOC(=O)c1ccccc1O [HEXYL 2-HYDROXYBENZOATE]	>-4
3-(4-ETHYLPHENYL)-2,2-DIMETHYLPROPANAL (A) + 3-(2-ETHYLPHENYL)-2,2-DIMETHYLPROPANAL (B)	>−4
CC1(C)CC=C(CCC=O)CC1	>−4
TRICYCLO[5.2.1.0~2,6~]DEC-3-EN-8-YL ACETATE (A) + TRICYCLO[5.2.1.0~2,6~]DEC-4-EN-8-YL ACETATE (B)	>−4
CC/C=C\CCOC(=O)C(C)C [(Z)-3-HEXENYL ISOBUTYRATE]	>−4
CCCCCCCC=O [OCTANAL]	>−4
(1RS,2RS)-2,4-DIMETHYL-3-CYCLOHEXENE-1-CARBALDEHYDE (A) + (1RS,2SR)-2,4-DIMETHYL-3-CYCLOHEXENE-1-CARBALDEHYDE (B)	>−4
2-METHYLBUTYL SALICYLATE (A) + PENTYL SALICYLATE (B)	>−4
CC/C=C(\C)C(O)CCCCC (racemic) [(+−)-(E)-4-METHYL-3-DECEN-5-OL]	>−4
C=CC(C)CCCC(C)(C)O (racemic)	>−4
CC(C)=CCCC(C)CC=O (racemic)	>−4
CC1=CCC(C(C)(C)S)CC1 (racemic) [(+−)-2-(4-METHYL-3-CYCLOHEXEN-1-YL)-2-PROPANETHIOL]	<−4
CCOC(=O)C(C)CC (racemic) [(+−)-ETHYL 2-METHYLBUTANOATE]	>−4
CC(=O)O[C@@H]1CC2CC[C@]1(C)C2(C)C [(1R,2R)-1,7,7-TRIMETHYL-BICYCLO[2.2.1]HEPT-2-YL ACETATE]	>−4
CCCCCCOC(C)=O [HEXYL ACETATE]	>−4
CC1=CC2CC(C=O)C1CC2C(C)C (stereo not drawn) [8-ISOPROPYL-6-METHYL-BICYCLO[2.2.2]OCT-5-ENE-2-CARBALDEHYDE]	<−4
10-UNDECENAL (A) + (9E)-9-UNDECENAL (B) + (9Z)-9-UNDECENAL (C)	<−4
COCCc1ccccc1 [(2-METHOXYETHYL)BENZENE]	>−4
CCCCCCCC1CCC(=O)O1 (racemic) [(+−)-5-HEPTYLDIHYDRO-2(3H)-FURANONE]	<−4
(+)-(3S)-3-[(1R)-4-METHYL-3-CYCLOHEXEN-1-YL]BUTANAL (A) + (+)-(3R)-3-[(1R)-4-METHYL-3-CYCLOHEXEN-1-YL]BUTANAL	>−4
C=CC(C)(CCC=C(C)C)OC(C)=O (racemic) [(+−)-1,5-DIMETHYL-1-VINYL-4-HEXENYL ACETATE]	>−4
CC(=O)OCCC(C)CCC=C(C)C (stereo not drawn) [3,7-DIMETHYL-6-OCTENYL ACETATE]	>−4
COc1ccc(C)cc1 [1-METHOXY-4-METHYLBENZENE]	>−4
CC12CCC(CC1)C(C)(C)O2	>−4
COc1ccc2ccccc2c1 [2-METHOXYNAPHTHALENE]	<−4

Compound	Log ODT
(2RS,4SR)-4-METHYL-2-(2-METHYL-1-PROPEN-1-YL)TETRAHYDRO-2H-PYRAN (A) + (2RS,4RS)-4-METHYL-2-(2-METHYL-1-PROPEN-1-YL)TETRAHYDRO-2H-PYRAN (B)	>−4
(+−)-4-METHYLENE-2-PHENYLTETRAHYDRO-2H-PYRAN (A) + (+−)-4-METHYL-6-PHENYL-3,6-DIHYDRO-2H-PYRAN (B) + (+−)-4-METHYL-2-PHENYL-3,6-DIHYDRO-2H-PYRAN (C)	<−4
.ALPHA.-DIHYDROTERPINEOL (A) + .BETA.-DIHYDROTERPINEOL (B)	>−4
(2Z)-2-TRIDECENENITRILE (A) + (3Z)-3-TRIDECENENITRILE (B) + (3E)-3-TRIDECENENITRILE (C) + (2E)-2-TRIDECENENITRILE (D)	<−4
CC(C)c1cccc(C(C)CC=O)c1 (racemic) [(+−)-3-(3-ISOPROPYL-1-PHENYL)BUTANAL]	<−4
C/C=C/C(=O)[C@@H]1[C@@H](C)C=CCC1(C)C (racemic)	<−4
CCCCCCCCCC=O [DECANAL]	>−4
CC1(C)CCC[C@]2(C)[C@H]3CCO[C@]3(C)CC[C@@H]12 [(−)-(3AR,5AS,9AS,9BR)-3A,6,6,9A-TETRAMETHYLDODECAHYDRONAPHTHO[2,1-B]FURAN]	<−4
CCCCCCCCCC(C)=O [Microcapsules 2-UNDECANONE, 2-UNDECANONE]	>−4
CCCCC[C@H]1C(=O)CC[C@@H]1CC(=O)OC (racemic) [METHYL 2-((1RS,2RS)-3-OXO-2-PENTYLCYCLOPENTYL)ACETATE]	>−4
CC/C=C\CCOC(C)=O [(Z)-3-HEXENYL ACETATE]	>−4
CC(=O)OCCc1ccccc1 [2-PHENYLETHYL ACETATE]	>−4
CC(C)=CCCC(C)C=O (racemic)	>−4
CC(C)CCCC(C)CCO (racemic)	>−4
CC1=CCC2C[C@@H]1C2(C)C (single isomer, unassigned; (-))	>−4
3,7-DIMETHYL-2,6-NONADIENENITRILE (A) + 3,7-DIMETHYL-3,6-NONADIENENITRILE (B)	>−4
COc1nccnc1CCCC(C)C	<−4
C=CCCC(=O)C1=CCCC(C)(C)C1	<−4
(2Z)-1,1-DIETHOXY-3,7-DIMETHYL-2,6-OCTADIENE (A) + (2E)-1,1-DIETHOXY-3,7-DIMETHYL-2,6-OCTADIENE (B)	>−4
O=C1CCCCCCCCCCCCCCO1 [OXACYCLOHEXADECAN-2-ONE]	>−4
CC(=O)/C=C/C1=C(C)CCCC1(C)C	<−4
c1ccc(Oc2ccccc2)cc1 [1,1′-OXYDIBENZENE]	>−4
3,5,6-TRIMETHYL-3-CYCLOHEXENE-1-CARBALDEHYDE (A) + 2,4,6-TRIMETHYL-3-CYCLOHEXENE-1 -CARBALDEHYDE (B)	>−4
1-OXA-12-CYCLOHEXADECEN-2-ONE (A) + 1-OXA-13-CYCLOHEXADECEN-2-ONE (B)	>−4
(+−)-(3E)-3-METHYL-4-(2,6,6-TRIMETHYL-2-CYCLOHEXEN-1-YL)-3-BUTEN-2-ONE (A) + (+−)-(1E)-1-(2,6,6-TRIMETHYL-2-CYCLOHEXEN-1-YL)-1-PENTEN-3-ONE (B)	<−4
